This note sets out measurements from the NIST ThermoML archive (doi:10.1021/je200195q).

The nature of the series: activity coefficient (dimensionless); of the first substance listed, at infinite dilution; xn = mol fraction of the nth substance listed. Particulars: 101 kPa, Liquid, Chromatography, x1 = 0.

Each structure is given as a SMILES string. ± gives the expanded uncertainty stated by the source.

With `CO` [methanol] + CCCCn1cc[n+](C)c1.O=S(=O)([N-]S(=O)(=O)C(F)(F)C(F)(F)F)C(F)(F)C(F)(F)F, the activity coefficient reads like this: (322.55 K) 1.23 ± 0.079; (342.75 K) 0.997 ± 0.062; (362.65 K) 0.942 ± 0.059.
`CC#N` [acetonitrile] + CCn1cc[n+](C)c1.CS(=O)(=O)[O-]: the activity coefficient (312.55 K) was determined as 1.26 ± 0.081, the activity coefficient (322.45 K) came to 0.818 ± 0.053 and the activity coefficient (332.45 K) was 0.836 ± 0.054.
For the compound `CCOCC` [diethyl ether] + CCCCCC[n+]1ccn(C)c1.FC(F)(F)C(F)(F)[P-](F)(F)(F)(C(F)(F)C(F)(F)F)C(F)(F)C(F)(F)F, the activity coefficient (312.8 K) amounted to 0.837 ± 0.054, the activity coefficient (332.85 K) came out at 0.866 ± 0.055 and the activity coefficient (354.65 K) amounted to 0.897 ± 0.057.
Turning to `CCCC=O` [butanal] + CCn1cc[n+](C)c1.CS(=O)(=O)[O-], the activity coefficient reads like this: (312.55 K) 4.87 ± 0.33; (322.45 K) 4.95 ± 0.34; (332.45 K) 3.51 ± 0.24.
`CC(C)O` [propan-2-ol] + CCCCCC[n+]1ccn(C)c1.FC(F)(F)C(F)(F)[P-](F)(F)(F)(C(F)(F)C(F)(F)F)C(F)(F)C(F)(F)F: the activity coefficient (312.8 K) is 2.06 ± 0.14, the activity coefficient (332.85 K) was 1.62 ± 0.11 and the activity coefficient (354.65 K) is 1.26 ± 0.081.
For the compound `C[N+](=O)[O-]` [nitromethane] + CCCCCCCCCCn1cc[n+](CCCCCCCCCC)c1C.O=S(=O)([N-]S(=O)(=O)C(F)(F)F)C(F)(F)F, the activity coefficient (323.1 K) was determined as 0.596 ± 0.042, the activity coefficient (333.15 K) is 0.559 ± 0.04 and the activity coefficient (343.15 K) was 0.536 ± 0.039.
`C#CCCCC` [1-hexyne] + CCCCCC[n+]1ccn(C)c1.FC(F)(F)C(F)(F)[P-](F)(F)(F)(C(F)(F)C(F)(F)F)C(F)(F)C(F)(F)F: the activity coefficient runs as follows: (312.8 K) 1.94 ± 0.13; (332.85 K) 1.89 ± 0.13; (354.65 K) 1.75 ± 0.12.
In the case of `CCC(=O)CC` [pentan-3-one] + CCn1cc[n+](C)c1.CS(=O)(=O)[O-], the activity coefficient (312.55 K) is 7.58 ± 0.52, the activity coefficient (322.45 K) amounted to 7.45 ± 0.51 and the activity coefficient (332.45 K) stood at 7.37 ± 0.5.
Regarding `CCCCCC` [hexane] + CCCCn1cc[n+](C)c1.O=S(=O)([N-]S(=O)(=O)C(F)(F)C(F)(F)F)C(F)(F)C(F)(F)F, the activity coefficient is, setting by setting: (322.55 K) 9.49 ± 0.65; (342.75 K) 8.8 ± 0.6; (362.65 K) 8.43 ± 0.57.
Regarding `CCC(C)CC` [3-methylpentane] + CCn1cc[n+](C)c1.CS(=O)(=O)[O-], the activity coefficient worked out at 157 ± 11 (312.55 K), 135 ± 9.3 (322.45 K) and 115 ± 7.9 (332.45 K).
In the case of `c1ccccc1` [benzene] + CCCCCC[n+]1ccn(C)c1.FC(F)(F)C(F)(F)[P-](F)(F)(F)(C(F)(F)C(F)(F)F)C(F)(F)C(F)(F)F, the activity coefficient (312.8 K) worked out at 0.517 ± 0.039, the activity coefficient (332.85 K) was 0.552 ± 0.04 and the activity coefficient (354.65 K) worked out at 0.564 ± 0.041.
Take `CCCCCCC` [heptane] + CCCCn1cc[n+](C)c1.O=S(=O)([N-]S(=O)(=O)C(F)(F)C(F)(F)F)C(F)(F)C(F)(F)F: the activity coefficient is 13.6 ± 0.93 (322.55 K), 12.4 ± 0.84 (342.75 K) and 11.6 ± 0.79 (362.65 K).
On to `Cc1cccc(C)c1` [1,3-dimethylbenzene] + CCCCCCCCCCn1cc[n+](CCCCCCCCCC)c1C.O=S(=O)([N-]S(=O)(=O)C(F)(F)F)C(F)(F)F, for which the activity coefficient (323.1 K) came to 0.645 ± 0.044, the activity coefficient (333.15 K) came out at 0.653 ± 0.045 and the activity coefficient (343.15 K) is 0.663 ± 0.045.
Take `CC(C)CO` [2-methyl-1-propanol] + CCCCCC[n+]1ccn(C)c1.FC(F)(F)C(F)(F)[P-](F)(F)(F)(C(F)(F)C(F)(F)F)C(F)(F)C(F)(F)F: the activity coefficient is 2.77 ± 0.19 (312.8 K), 2.13 ± 0.14 (332.85 K) and 1.62 ± 0.11 (354.65 K).
`CCCCCCCCCCCCC` [tridecane] + CCCCn1cc[n+](C)c1.O=S(=O)([N-]S(=O)(=O)C(F)(F)C(F)(F)F)C(F)(F)C(F)(F)F: the activity coefficient by setting is: (322.55 K) 111 ± 7.6; (342.75 K) 78.1 ± 5.3; (363.65 K) 68.9 ± 4.7.
Turning to `CCCCO` [butan-1-ol] + CCCCCCCCCCn1cc[n+](CCCCCCCCCC)c1C.O=S(=O)([N-]S(=O)(=O)C(F)(F)F)C(F)(F)F, the activity coefficient came out at 1.38 ± 0.09 (323.1 K), 1.2 ± 0.077 (333.15 K) and 1.12 ± 0.071 (343.15 K).
`Cc1ccc(C)cc1` [1,4-dimethylbenzene] + CCCCCC[n+]1ccn(C)c1.FC(F)(F)C(F)(F)[P-](F)(F)(F)(C(F)(F)C(F)(F)F)C(F)(F)C(F)(F)F: the activity coefficient was found to be 0.992 ± 0.062 (312.8 K), 1.03 ± 0.065 (332.85 K) and 1 ± 0.063 (354.65 K).
For `c1ccncc1` [pyridine] + CCCCCC[n+]1ccn(C)c1.FC(F)(F)C(F)(F)[P-](F)(F)(F)(C(F)(F)C(F)(F)F)C(F)(F)C(F)(F)F the same measures were 0.302 ± 0.031, 0.326 ± 0.032 and 0.331 ± 0.032.
With `CCCCCC` [hexane] + CCn1cc[n+](C)c1.CS(=O)(=O)[O-], the activity coefficient was determined as 207 ± 14 (312.55 K), 190 ± 13 (322.45 K) and 152 ± 10 (332.45 K).
As for `Cc1ccc(C)cc1` [1,4-dimethylbenzene] + CCCCCCCCCCn1cc[n+](CCCCCCCCCC)c1C.O=S(=O)([N-]S(=O)(=O)C(F)(F)F)C(F)(F)F, the activity coefficient reads like this: (323.1 K) 0.647 ± 0.044; (333.15 K) 0.66 ± 0.045; (343.15 K) 0.657 ± 0.045.
Consider `CC(C)O` [propan-2-ol] + CCCCCCCCCCn1cc[n+](CCCCCCCCCC)c1C.O=S(=O)([N-]S(=O)(=O)C(F)(F)F)C(F)(F)F, for which the activity coefficient (323.1 K) stood at 1.27 ± 0.082, the activity coefficient (333.15 K) was determined as 1.14 ± 0.073 and the activity coefficient (343.15 K) was found to be 1.03 ± 0.065.
For `CC(C)CO` [2-methyl-1-propanol] + CCCCCCCCCCn1cc[n+](CCCCCCCCCC)c1C.O=S(=O)([N-]S(=O)(=O)C(F)(F)F)C(F)(F)F the same measures were 1.3 ± 0.084, 1.17 ± 0.075 and 1.06 ± 0.067.
With `CC(C)O` [propan-2-ol] + CCCCn1cc[n+](C)c1.O=S(=O)([N-]S(=O)(=O)C(F)(F)C(F)(F)F)C(F)(F)C(F)(F)F, the activity coefficient came to 1.77 ± 0.12 (322.55 K), 1.46 ± 0.096 (342.75 K) and 1.25 ± 0.08 (362.65 K).
In the case of `CCCCO` [butan-1-ol] + CCCCCC[n+]1ccn(C)c1.FC(F)(F)C(F)(F)[P-](F)(F)(F)(C(F)(F)C(F)(F)F)C(F)(F)C(F)(F)F, the activity coefficient (312.8 K) amounted to 4.9 ± 0.33, the activity coefficient (332.85 K) worked out at 2.32 ± 0.16 and the activity coefficient (354.65 K) is 1.76 ± 0.12.
Consider `Cc1ccc(C)cc1` [1,4-dimethylbenzene] + CCCCn1cc[n+](C)c1.O=S(=O)([N-]S(=O)(=O)C(F)(F)C(F)(F)F)C(F)(F)C(F)(F)F, for which the activity coefficient reads like this: (322.55 K) 2.05 ± 0.14; (342.75 K) 2.03 ± 0.14; (362.65 K) 2 ± 0.14.
On to `CCCCCCCC` [octane] + CCCCCCCCCCn1cc[n+](CCCCCCCCCC)c1C.O=S(=O)([N-]S(=O)(=O)C(F)(F)F)C(F)(F)F, for which the activity coefficient runs as follows: (323.1 K) 2.54 ± 0.17; (333.15 K) 2.48 ± 0.17; (343.15 K) 2.45 ± 0.17.
For `ClCCl` [dichloromethane] + CCn1cc[n+](C)c1.CS(=O)(=O)[O-], the activity coefficient came out at 0.471 ± 0.037 (312.55 K), 0.531 ± 0.039 (322.45 K) and 1.3 ± 0.084 (332.45 K).
Consider `C1CCCCC1` [cyclohexane] + CCCCCC[n+]1ccn(C)c1.FC(F)(F)C(F)(F)[P-](F)(F)(F)(C(F)(F)C(F)(F)F)C(F)(F)C(F)(F)F, for which the activity coefficient reads like this: (312.8 K) 4.78 ± 0.33; (332.85 K) 4.17 ± 0.28; (354.65 K) 3.62 ± 0.25.
As for `Cc1ccccc1` [toluene] + CCCCCC[n+]1ccn(C)c1.FC(F)(F)C(F)(F)[P-](F)(F)(F)(C(F)(F)C(F)(F)F)C(F)(F)C(F)(F)F, the activity coefficient reads like this: (312.8 K) 0.674 ± 0.046; (332.85 K) 0.727 ± 0.048; (354.65 K) 0.753 ± 0.05.
The matching figures for `CCCCCCCCC` [nonane] + CCCCCC[n+]1ccn(C)c1.FC(F)(F)C(F)(F)[P-](F)(F)(F)(C(F)(F)C(F)(F)F)C(F)(F)C(F)(F)F: 17.7 ± 1.2, 15.5 ± 1.1 and 12.4 ± 0.85.
Consider `CCCCCCCCCC` [decane] + CCCCn1cc[n+](C)c1.O=S(=O)([N-]S(=O)(=O)C(F)(F)C(F)(F)F)C(F)(F)C(F)(F)F, for which the activity coefficient (322.55 K) came out at 37.4 ± 2.6, the activity coefficient (342.75 K) amounted to 33.3 ± 2.3 and the activity coefficient (362.65 K) stood at 28 ± 1.9.
In the case of `CCCCCCCC` [octane] + CCCCCC[n+]1ccn(C)c1.FC(F)(F)C(F)(F)[P-](F)(F)(F)(C(F)(F)C(F)(F)F)C(F)(F)C(F)(F)F, the activity coefficient (312.8 K) came to 12.2 ± 0.83, the activity coefficient (332.85 K) came out at 10.5 ± 0.72 and the activity coefficient (354.65 K) was 8.87 ± 0.6.
